Results from patent US10807986B2, “Fused pyrimidine compound or salt thereof” (TAIHO PHARMACEUTICAL CO., LTD., priority 2016, dated 2020).

Assay: Evaluation of stability in liver microsome
Conditions: mouse liver microsome 0.25 mg/mL, test compound 1 μM, 37° C., 30 minutes

Structure (SMILES) | Remaining (%)
COCc1ccc(NC(=O)c2c(C#Cc3cccc(F)c3)n(C3(C)CC3)c3ncnc(N)c23)cc1 [Example 130, 4-amino-6-((3-fluorophenyl)ethynyl)-N-(4-(methoxymethyl)phenyl)-7-(1-methylcyclopropyl)-7H-pyrrolo[2,3-d]pyrimidine-5-carboxamide] | 84%
COCc1ccc(NC(=O)c2c(C#CC3(O)CCCC3)n(C3(C)CC3)c3ncnc(N)c23)cc1 [Example 131, 4-amino-6-((1-hydroxycyclopentyl)ethynyl)-N-(4-(methoxymethyl)phenyl)-7-(1-methylcyclopropyl)-7H-pyrrolo[2,3-d]pyrimidine-5-carboxamide] | 55%
COCc1ccc(NC(=O)c2c(C#CCN3CCN(C)CC3)n(C3(C)CC3)c3ncnc(N)c23)cc1 [Example 132, 4-amino-N-(4-(methoxymethyl)phenyl)-7-(1-methylcyclopropyl)-6-(3-(4-methylpiperazin-1-yl)prop-1-yn-1-yl)-7H-pyrrolo[2,3-d]pyrimidine-5-carboxamide] | 77%
COCc1ccc(NC(=O)c2c(C#CC(C)(C)N)n(C3(C)CC3)c3ncnc(N)c23)cc1 [Example 134, 4-amino-6-(3-amino-3-methylbut-1-yn-1-yl)-N-(4-(methoxymethyl)phenyl)-7-(1-methylcyclopropyl)-7H-pyrrolo[2,3-d]pyrimidine-5-carboxamide] | 79%
COCc1ccc(NC(=O)c2c(OCC3CCCO3)n(C3(C)CC3)c3ncnc(N)c23)cc1 (stereo not drawn) [Example 135, 4-amino-N-(4-(methoxymethyl)phenyl)-7-(1-methylcyclopropyl)-6-((tetrahydrofuran-2-yl)methoxy)-7H-pyrrolo[2,3-d]pyrimidine-5-carboxamide] | 67%
COCc1ccc(NC(=O)c2c(OCCN3CCCC3=O)n(C3(C)CC3)c3ncnc(N)c23)cc1 [Example 136, 4-amino-N-(4-(methoxymethyl)phenyl)-7-(1-methylcyclopropyl)-6-(2-(2-oxopyrrolidin-1-yl)ethoxy)-7H-pyrrolo[2,3-d]pyrimidine-5-carboxamide] | 78%
COCc1ccc(NC(=O)c2c(OCC(C)(C)OC)n(C3(C)CC3)c3ncnc(N)c23)cc1 [Example 137, 4-amino-6-(2-methoxy-2-methylpropoxy)-N-(4-(methoxymethyl)phenyl)-7-(1-methylcyclopropyl)-7H-pyrrolo[2,3-d]pyrimidine-5-carboxamide] | 53%
COCc1ccc(NC(=O)c2c(OCC3CCCC3)n(C3(C)CC3)c3ncnc(N)c23)cc1 [Example 140, 4-amino-6-(cyclopentylmethoxy)-N-(4-(methoxymethyl)phenyl)-7-(1-methylcyclopropyl)-7H-pyrrolo[2,3-d] pyrimidine-5-carboxamide] | 52%
COCc1ccc(NC(=O)c2c(OCC3CCOCC3)n(C3(C)CC3)c3ncnc(N)c23)cc1 [Example 141, 4-amino-N-(4-(methoxymethyl)phenyl)-7-(1-methylcyclopropyl)-6-((tetrahydro-2H-pyran-4-yl)methoxy)-7H-pyrrolo[2,3-d]pyrimidine-5-carboxamide] | 68%
COCc1ccc(NC(=O)c2c(C#CCC3(O)CCOCC3)n(C3(C)CC3)c3ncnc(N)c23)cc1 [Example 143, 4-amino-6-(3-(4-hydroxytetrahydro-2H-pyran-4-yl)prop-1-yn-1-yl)-N-(4-(methoxymethyl)phenyl)-7-(1-methylcyclopropyl)-7H-pyrrolo[2,3-d]pyrimidine-5-carboxamide] | 68%
COCc1ccc(NC(=O)c2c(C#Cc3cnn(C(C)C)c3)n(C3(C)CC3)c3ncnc(N)c23)cc1 [Example 144, 4-amino-6-((1-isopropyl-1H-pyrazol-4-yl)ethynyl)-N-(4-(methoxymethyl)phenyl)-7-(1-methylcyclopropyl)-7H-pyrrolo[2,3-d]pyrimidine-5-carboxamide] | 79%
COCc1ccc(NC(=O)c2c(-c3ccc(CO)cc3)n(C3(C)CC3)c3ncnc(N)c23)cc1 [Example 145, 4-amino-6-(4-(hydroxymethyl)phenyl)-N-(4-(methoxymethyl)phenyl)-7-(1-methylcyclopropyl)-7H-pyrrolo[2,3-d]pyrimidine-5-carboxamide] | 72%
COCc1ccc(NC(=O)c2c(-c3ccc(NC(C)=O)nc3)n(C3(C)CC3)c3ncnc(N)c23)cc1 [Example 147, 6-(6-acetamidopyridin-3-yl)-4-amino-N-(4-(methoxymethyl)phenyl)-7-(1-methylcyclopropyl)-7H-pyrrolo[2,3-d]pyrimidine-5-carboxamide] | 68%
COCc1ccc(NC(=O)c2c(-c3ccc(O)cc3)n(C3(C)CC3)c3ncnc(N)c23)cc1 [Example 148, 4-amino-6-(4-hydroxyphenyl)-N-(4-(methoxymethyl)phenyl)-7-(1-methylcyclopropyl)-7H-pyrrolo[2,3-d]pyrimidine-5-carboxamide] | 61%
C=C(C)c1c(C(=O)Nc2ccc(COC)cc2)c2c(N)ncnc2n1C1(C)CC1 [Example 149, 4-amino-N-(4-(methoxymethyl)phenyl)-7-(1-methylcyclopropyl)-6-(prop-1-en-2-yl)-7H-pyrrolo[2,3-d]pyrimidine-5-carboxamide] | 62%
COCc1ccc(NC(=O)c2c(-c3cnn(C)c3)n(C3(C)CC3)c3ncnc(N)c23)cc1 [Example 150, 4-amino-N-(4-(methoxymethyl)phenyl)-6-(1-methyl-1H-pyrazol-4-yl)-7-(1-methylcyclopropyl)-7H-pyrrolo[2,3-d]pyrimidine-5-carboxamide] | 78%
COCc1ccc(NC(=O)c2c(C#CCC3CCOCC3)n(C3(C)CC3)c3ncnc(N)c23)cc1 [Example 152, 4-amino-N-(4-(methoxymethyl)phenyl)-7-(1-methylcyclopropyl)-6-(3-(tetrahydro-2H-pyran-4-yl)prop-1-yn-1-yl)-7H-pyrrolo[2,3-d]pyrimidine-5-carboxamide] | 57%
COCc1ccc(NC(=O)c2c(-c3ccccc3)n(C3(C)CC3)c3ncnc(N)c23)cc1 [Example 154, 4-amino-N-(4-(methoxymethyl)phenyl)-7-(1-methylcyclopropyl)-6-phenyl-7H-pyrrolo[2,3-d]pyrimidine-5-carboxamide] | 50%
COCc1ccc(NC(=O)c2c(C#Cc3ccc(N)nc3)n(C3(C)CC3)c3ncnc(N)c23)cc1 [Example 155, 4-amino-6-((6-aminopyridin-3-yl)ethynyl)-N-(4-(methoxymethyl)phenyl)-7-(1-methylcyclopropyl)-7H-pyrrolo[2,3-d]pyrimidine-5-carboxamide] | 64%
COCc1ccc(NC(=O)c2c(C#CCC3NC(=O)NC3=O)n(C3(C)CC3)c3ncnc(N)c23)cc1 (stereo not drawn) [Example 156, 4-amino-6-(3-(2,5-dioxoimidazolidin-4-yl)prop-1-yn-1-yl)-N-(4-(methoxymethyl)phenyl)-7-(1-methylcyclopropyl)-7H-pyrrolo[2,3-d]pyrimidine-5-carboxamide] | 67%
CCC(O)CC#Cc1c(C(=O)Nc2ccc(COC)cc2)c2c(N)ncnc2n1C1(C)CC1 (stereo not drawn) [Example 157, 4-amino-6-(4-hydroxyhex-1-yn-1-yl)-N-(4-(methoxymethyl)phenyl)-7-(1-methylcyclopropyl)-7H-pyrrolo[2,3-d]pyrimidine-5-carboxamide] | 59%
